This is an account of results in ChEMBL document CHEMBL1122334, “New azacannabinoids highly active in the central nervous system” (1983).

Holding throughout (type): functional
In assay [1] the test system is Rattus norvegicus. Briefly: The compound was tested for hyperexcitability in rat at a dose of 20 mg/Kg.
The subject of assay [2] is Rattus norvegicus. Briefly: The compound was tested for hyperexcitability in rat at a dose of 80 mg/Kg.
Assay [3] has as its system Mus musculus. Briefly: The compound was tested for activity to decrease fighting in mouse at a dose of 5 mg/Kg.
For assay [4], the system named is Rattus norvegicus. Briefly: The compound was tested for decreasing motor activity in rat. at a dose of 5 mg/Kg.
Assay [5] relates to Rattus norvegicus. Briefly: The compound was tested for hyperexcitability in rat at a dose of 5 mg/Kg.
The subject of assay [6] is Mus musculus. Briefly: The compound was tested for analgesic activity using writhing (W) test in mouse at a dose of 10 mg/Kg. Background: In writhing tests, fewer writhes than in controls are read as antinociception.
For assay [7], the system named is Mus musculus. The experiment in a line: The compound was tested for activity to decrease fighting in mouse at a dose of 20 mg/Kg.
Assay [8] has as its system Rattus norvegicus. Briefly: The compound was tested for decreasing motor activity in rat at a dose of 20 mg/Kg.
Assay [9] relates to Rattus norvegicus. The experiment in a line: The compound was tested for serotonin antagonism in rat at a dose of 80 mg/Kg.
Assay [10] deals with Rattus norvegicus. Briefly: The compound was tested for decreasing motor activity in rat at a dose of 80 mg/Kg.
Assay [11] relates to Rattus norvegicus. Briefly: The compound was tested for methamphetamine antagonism in rat at a dose of 80 mg/Kg.
For assay [12], the system named is Rattus norvegicus. The experiment in a line: The compound was tested for methamphetamine antagonism in rat at a dose of 20 mg/Kg.
Assay [13] has as its system Rattus norvegicus. Briefly: The compound was tested for serotonin antagonism in rat at a dose of 20 mg/Kg.
Assay [14] has as its system Rattus norvegicus. The experiment in a line: The compound was tested for serotonin antagonism in rat at a dose of 5 mg/Kg.
Assay [15] relates to Rattus norvegicus. Briefly: The compound was tested for methamphetamine antagonism in rat at a dose of 5 mg/Kg.
Assay [16] has as its system Rattus norvegicus. The experiment in a line: The compound was tested for analgesic activity using (RTF) tail-flick test at a dose of 40 mg/Kg. (In general: In hot-plate and tail-flick tests a longer latency is read as antinociception.)
The test system of assay [17] is Mus musculus. The experiment in a line: The compound was tested for analgesic activity using writhing (W) test in mouse at a dose of 40 mg/Kg.
For assay [18], the species on record is Mus musculus. Briefly: The compound was tested for analgesic activity using writhing (W) test in mouse.
In assay [19] the test system is Rattus norvegicus. Briefly: The compound was tested for decreasing motor activity in rat at a dose of 10 mg/Kg.
Assay [20] is filed under the species Rattus norvegicus. The experiment in a line: The compound was tested for analgesic activity using (RTF) tail-flick test in rat.
For assay [21], the system named is Rattus norvegicus. The experiment in a line: The compound was tested for decreasing motor activity in rat at a dose of 5 mg/Kg.
The test system of assay [22] is Mus musculus. Briefly: The compound was tested for activity to decrease fighting in mouse at a dose of 10 mg/Kg.
In assay [23] the test system is Rattus norvegicus. Briefly: The compound was tested for decreasing motor activity in rat at a dose of 4 mg/Kg.
Assay [24] has as its system Rattus norvegicus. Briefly: The compound was tested for decreasing motor activity in rat at a dose of 1 mg/Kg.

For the molecule `CC(CCCc1ccc(F)cc1)c1cc(O)c2c(c1)OC(C)(C)C1=C2CN(CC(=O)N(C)C)CC1` (stereo unspecified), the Possible response amounted to 10% with Rattus norvegicus [1], 69% in the assay with Rattus norvegicus [2] and 0% in the assay with Rattus norvegicus [5]. Besides, the Decrease in fighting is listed as 3% with Mus musculus [3] and 12% with Mus musculus [7]. Besides, the Decrease in activity in the assay on Rattus norvegicus [4] is recorded as 0%; in the assay with Rattus norvegicus [8], 27%; in the assay on Rattus norvegicus [9] it was 55%; with Rattus norvegicus [10] it was 68%; with Rattus norvegicus [11] it was 54%; with Rattus norvegicus [12], 34%. Further, the Decrease in activity with Rattus norvegicus [13] is 12%; with Rattus norvegicus [14] it was 11%; in the assay on Rattus norvegicus [15], -35%. Also, in the assay with Mus musculus [6], the increase in response was 24%.

Turning to `CCCCCC(C)C(C)c1cc(O)c2c(c1)OC(C)(C)C1=C2CN(CC(N)=O)CC1` (stereo unspecified), the Possible response in the assay on Rattus norvegicus [1] is on record as 79%; in the assay on Rattus norvegicus [2] it was 98%; with Rattus norvegicus [5] it was 65%. Also, the increase in response in the assay on Rattus norvegicus [16] is 132%; in the assay on Mus musculus [17], 82%; in the assay with Mus musculus [6], 6%. Besides, the Decrease in fighting with Mus musculus [3] turned out to be 10%; in the assay on Mus musculus [7], 21%. Besides, the Decrease in activity is 28% with Rattus norvegicus [4]; 78% in the assay with Rattus norvegicus [8]; 78% in the assay on Rattus norvegicus [9]; 86% with Rattus norvegicus [10]; 71% in the assay on Rattus norvegicus [11]; 58% in the assay on Rattus norvegicus [12]. The Decrease in activity with Rattus norvegicus [13] worked out at 83%; in the assay with Rattus norvegicus [14] it was 71%; in the assay on Rattus norvegicus [15], 42%.

As a reminder, the ED50 is the midpoint of the dose-response relation. Low readings indicate greater potency, high ones weaker potency. On to `CCCCCc1cc(O)c2c(c1)OC(C)(C)[C@@H]1CCC(C)=C[C@@H]21` [DRONABINOL], for which the Possible response with Rattus norvegicus [1] is listed as 100%; in the assay with Rattus norvegicus [5], 29%. In addition, the figures for the ED50 in the assay listed under Mus musculus [18] and in the assay listed under Rattus norvegicus [20] were 43 mg/kg and 27 mg/kg, respectively. In addition, in the assay on Mus musculus [3], the Decrease in fighting is 36%. Besides, the Decrease in activity with Rattus norvegicus [8] was found to be 72%; in the assay on Rattus norvegicus [19], 41%; in the assay on Rattus norvegicus [21] it was 15%.

On to `C#CCN1CCC2=C(C1)c1c(O)cc(C(C)CCCc3ccc(F)cc3)cc1OC2(C)C` (stereo unspecified), for which the Possible response in the assay on Rattus norvegicus [1] is given as 100%; with Rattus norvegicus [5] it was 60%. The ED50 in the assay listed under Mus musculus [18] was determined as 5.3 mg/kg; in the assay filed under Rattus norvegicus [20], 3.7 mg/kg. Further, the Decrease in fighting with Mus musculus [22] is listed as 47%; in the assay on Mus musculus [3] it was -29%. In addition, the Decrease in activity in the assay with Rattus norvegicus [23] was 77%; in the assay with Rattus norvegicus [24], 60%; in the assay with Rattus norvegicus [11], 84%; in the assay on Rattus norvegicus [12], 34%; with Rattus norvegicus [15], 8%.

On to `CNC(=O)CN1CCC2=C(C1)c1c(O)cc(C(C)CCCc3ccc(F)cc3)cc1OC2(C)C` (stereo unspecified), for which the Possible response amounted to 100% in the assay on Rattus norvegicus [1], 100% in the assay on Rattus norvegicus [2] and 92% with Rattus norvegicus [5]. For the same molecule, the Decrease in fighting in the assay on Mus musculus [3] worked out at 56%; in the assay on Mus musculus [7], 93%. Further, the Decrease in activity in the assay with Rattus norvegicus [4] was determined as 73%; in the assay on Rattus norvegicus [8] it was 66%; with Rattus norvegicus [9], 92%; with Rattus norvegicus [10], 94%; in the assay on Rattus norvegicus [11], 73%; in the assay with Rattus norvegicus [12] it was 63%. Further, the Decrease in activity in the assay with Rattus norvegicus [13] stood at 63%; in the assay on Rattus norvegicus [14], 6%; in the assay with Rattus norvegicus [15], 51%. In addition, the increase in response with Mus musculus [6] worked out at 71%.
